Assay results as given in ChEMBL document CHEMBL4130627, “Prodrugs of the Phosphoribosylated Forms of Hydroxypyrazinecarboxamide Pseudobase T-705 and Its De-Fluoro Analogue T-1105 as Potent Influenza Virus Inhibitors” (J Med Chem, 2018).
Activity calls are given as the source filed them. The rule behind the calls is not given here.

Columns and labels:
Influenza B virus [1] = experiment: microbe, parasite or virus in culture; details: Ned/537/05, MDCK, 72 h
Description: Antiviral activity against Influenza virus B/Ned/537/05 infected in MDCK cells assessed as reduction in viral replication at 3 days post infection by formazan-based MTS assay

[2] = Cytotoxicity against MDCK cells assessed as change in cell morphology after 3 days by microscopic analysis; type: cell-based, Canis lupus familiaris; details: dog
MDCK [3] = experiment: Prodrug activation in HGPRT deficient 6-thioguanine-resistant MDCK cells by RP-HPLC-UV analysis; type: cell-based, Canis lupus familiaris; details: dog
[4] = Cytotoxicity against HGPRT deficient 6-thioguanine-resistant MDCK cells assessed as change in cell morphology after 3 days by microscopic analysis; type: cell-based, Canis lupus familiaris; details: dog
Influenza A virus [5] = experiment: microbe, parasite or virus in culture; details: MDCK, 72 h
Description: Antiviral activity against Influenza virus A/X-31 infected in MDCK cells assessed as reduction in viral replication at 3 days post infection by microscopic analysis

Influenza B virus [6] = experiment: microbe, parasite or virus in culture; details: Ned/537/05, MDCK, 72 h; remark: listed apart in the source
Description: Antiviral activity against Influenza virus B/Ned/537/05 infected in MDCK cells assessed as reduction in viral replication at 3 days post infection by microscopic analysis

[7] = Cytotoxicity against MDCK cells assessed as reduction in cell viability after 3 days by formazan-based MTS assay; design: species or system Canis lupus familiaris; details: dog
Influenza A virus [8] = experiment: microbe, parasite or virus in culture; details: MDCK, 72 h; remark: listed apart in the source
Description: Antiviral activity against Influenza virus A/X-31 infected in MDCK cells assessed as reduction in viral replication at 3 days post infection by formazan-based MTS assay

MDCK [9] = experiment: Prodrug activation in MDCK cells by RP-HPLC-UV analysis; type: cell-based, Canis lupus familiaris; details: dog
[10] = biological target: Membrane-associated guanylate kinase, WW and PDZ domain-containing protein 1 (Homo sapiens) (UniProt Q96QZ7); experiment: Inhibition of human recombinant guanylate kinase 1 mediated […] conversion at 200 uM preincubated for 10 mins followed by enzyme addition measured up to 60 mins by UV absorbance method relative to control
[11] = biological target: Membrane-associated guanylate kinase, WW and PDZ domain-containing protein 1 (Homo sapiens) (UniProt Q96QZ7); experiment: Inhibition of human recombinant guanylate kinase 1 mediated […] conversion at 400 uM preincubated for 10 mins followed by enzyme addition measured up to 60 mins by UV absorbance method relative to control
MDCK [12] = experiment: Prodrug activation in HGPRT deficient MDCK cells assessed as T-1105-RMP formation at 465 uM after 1 to 840 mins by RP-HPLC-UV analysis; type: cell-based, Canis lupus familiaris; details: dog
[13] = Drug metabolism in MDCK cells assessed as T-1105-RTP formation at 465 uM after 2 hrs in presence of 5mM ATP by RP-HPLC-UV analysis; type: ADME, cell-based, Canis lupus familiaris; details: dog
[14] = biological target: Membrane-associated guanylate kinase, WW and PDZ domain-containing protein 1 (Homo sapiens) (UniProt Q96QZ7); experiment: Inhibition of human recombinant guanylate kinase 1 mediated […] conversion at 100 uM preincubated for 10 mins followed by enzyme addition measured up to 60 mins by UV absorbance method relative to control
MDCK [15] = experiment: Prodrug activation in MDCK cells assessed as T-1105-RMP formation at 465 uM after 1 to 840 mins by RP-HPLC-UV analysis; type: cell-based, Canis lupus familiaris; details: dog
[16] = Drug metabolism in MDCK cells assessed as T-1105-RTP formation at 465 uM in presence of GTP by RP-HPLC-UV analysis; type: ADME, cell-based, Canis lupus familiaris; details: dog
MDCK [17] = experiment: Cytotoxicity against MDCK cells assessed as reduction in cell viability at 37 uM after 3 days by formazan-based MTS assay; design: species or system Canis lupus familiaris; details: dog, 72 h
[18] = biological target: Membrane-associated guanylate kinase, WW and PDZ domain-containing protein 1 (Homo sapiens) (UniProt Q96QZ7); experiment: Inhibition of human recombinant guanylate kinase 1 mediated […] conversion at 25 to 400 uM preincubated for 10 mins followed by enzyme addition measured up to 60 mins by UV absorbance method
[19] = Drug metabolism in MDCK cells assessed as T-1105-RDP formation at 465 uM during 15 hrs by RP-HPLC-UV analysis; type: ADME, cell-based, Canis lupus familiaris; details: dog
[20] = Drug metabolism in MDCK cells assessed as T-1105-RTP formation at 465 uM during 15 hrs by RP-HPLC-UV analysis; type: ADME, cell-based, Canis lupus familiaris; details: dog
MDCK [21] = experiment: Prodrug activation in MDCK cells assessed as T-1105-RDP formation at 500 uM after 2 hrs by RP-HPLC-UV analysis; type: cell-based, Canis lupus familiaris; details: dog
Influenza A virus [22] = type: functional, organism-based; details: Influenza A virus (A/X-31(H3N2)); MDCK; 12 to 25 uM
Influenza A virus [23] = type: functional, organism-based; details: Influenza A virus (A/X-31(H3N2)); MDCK; 25 uM
Influenza A virus [24] = type: functional, organism-based; details: Influenza A virus (A/X-31(H3N2)); MDCK; 25 uM; remark: listed apart in the source
Influenza A virus [25] = type: functional, organism-based; details: Influenza A virus (A/X-31(H3N2)); MDCK; 25 uM; remark: listed apart in the source
Influenza A virus [26] = type: functional, organism-based; details: Influenza A virus (A/X-31(H3N2)); MDCK; 6 uM
A549 = experiment: Cytotoxicity against human A549 cells assessed as reduction in cell viability at 100 uM; type: cell-based; details: a549, 100 µM
MDCK [27] = experiment: Prodrug activation in MDCK cells assessed as T-1105-RTP formation at 450 uM up to 4 hrs by RP-HPLC-UV analysis; type: cell-based, Canis lupus familiaris; details: dog
[28] = Drug metabolism in MDCK cells assessed as 4-((((((2R,3S,4R,5R)-5-(3-carbamoyl-2-oxopyrazin-1(2H)-yl)-3,4-dihydroxytetrahydrofuran-2-yl)methoxy)(hydroxy)phosphoryloxy)(hydroxy)phosphoryloxy)methyl)phenyl decanoate formation at 450 uM up to 4 hrs by RP-HPLC-UV analysis; type: ADME, cell-based, Canis lupus familiaris; details: dog
[29] = tested on: unidentified influenza virus; experiment: Antiviral activity against Influenza virus infected in human A549 cells; type: functional
[30] = Prodrug activation in phosphate buffer at pH 7.3 assessed as half life for T-1105-RDP formation at 450 uM after 24 to 120 hrs by RP-HPLC-UV analysis; type: physicochemical; details: pH 7.3, 450 µM
Liver carboxylesterase [31] = biological target: T1, Liver carboxylesterase (Sus scrofa, UniProt Q29550); experiment: Prodrug activation assessed as pig liver esterase mediated metabolite formation at 450 uM up to 150 mins by RP-HPLC-UV analysis; type: ADME; details: isolated protein, 2.5 h
T1 sequence (Q29550 whole entry): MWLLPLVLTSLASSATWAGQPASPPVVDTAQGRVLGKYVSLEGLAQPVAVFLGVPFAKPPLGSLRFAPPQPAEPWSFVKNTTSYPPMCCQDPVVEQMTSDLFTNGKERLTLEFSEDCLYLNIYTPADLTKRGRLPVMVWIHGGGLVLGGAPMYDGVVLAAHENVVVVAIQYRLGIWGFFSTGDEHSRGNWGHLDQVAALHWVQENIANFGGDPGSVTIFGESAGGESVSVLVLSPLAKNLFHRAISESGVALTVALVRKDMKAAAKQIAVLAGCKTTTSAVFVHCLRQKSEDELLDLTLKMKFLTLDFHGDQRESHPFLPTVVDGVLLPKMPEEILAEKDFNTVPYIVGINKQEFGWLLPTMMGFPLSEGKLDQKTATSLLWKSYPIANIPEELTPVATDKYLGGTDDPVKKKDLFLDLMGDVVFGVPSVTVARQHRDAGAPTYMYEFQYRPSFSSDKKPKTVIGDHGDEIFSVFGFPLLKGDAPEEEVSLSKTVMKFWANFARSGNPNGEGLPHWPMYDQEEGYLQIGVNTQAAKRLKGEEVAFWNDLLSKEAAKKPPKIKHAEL

Liver carboxylesterase [32] = biological target: T1, Liver carboxylesterase; experiment: Drug metabolism assessed as pig liver esterase mediated 4-((((((2R,3S,4R,5R)-5-(3-carbamoyl-2-oxopyrazin-1(2H)-yl)-3,4-dihydroxytetrahydrofuran-2-yl)methoxy)(hydroxy)phosphoryloxy)(hydroxy)phosphoryloxy)methyl)phenyl decanoate formation at 450 uM after 150 mins by RP-HPLC-UV analysis; type: ADME; details: isolated protein, 2.5 h
[33] = Inhibition of Influenza virus A/X-31 RNA dependent RNA polymerase using ApG primer [adenyl (3'-5') guanosine] and [8-3H]GTP after 1 hr by filter-based assay; design: species or system Influenza A virus (A/X-31(H3N2))
[34] = Drug metabolism in MDCK cells assessed as T-1105-RDP formation at 450 uM up to 4 hrs by RP-HPLC-UV analysis; type: ADME, cell-based, Canis lupus familiaris; details: dog
Influenza A virus [35] = type: functional, organism-based; details: Influenza A virus (A/X-31(H3N2)); MDCK; 12 to 25 uM; remark: listed apart in the source
MDCK [36] = type: cell-based, Canis lupus familiaris; details: dog, 2 h, 500 µM
[37] = tested on: unidentified influenza virus; experiment: Potency index, ratio of T-1105 EC99 to compound EC99 for Influenza virus infected in human A549 cells; type: functional
[38] = Inhibition of Influenza virus B/Ned/537/05 RNA dependent RNA polymerase using ApG primer [adenyl (3'-5') guanosine] and [8-3H]GTP after 1 hr by filter-based assay
MDCK [39] = experiment: Prodrug activation in MDCK cells assessed as T-1105-RMP formation at 450 uM up to 4 hrs by RP-HPLC-UV analysis; type: cell-based, Canis lupus familiaris; details: dog
MDCK [40] = type: cell-based, Canis lupus familiaris; details: dog, 714 µM
Influenza A virus [41] = type: functional, organism-based; details: Influenza A virus (A/X-31(H3N2)); MDCK; 25 uM; remark: listed apart in the source
MDCK [42] = experiment: Prodrug activation in MDCK cells assessed as T-1105-RMP formation at 714 uM after 19 hrs by RP-HPLC-UV analysis; type: cell-based, Canis lupus familiaris; details: dog
Influenza A virus [43] = type: functional, organism-based; details: Influenza A virus (A/X-31(H3N2)); MDCK; 250 uM
Influenza A virus [44] = type: functional, organism-based; details: Influenza A virus (A/X-31(H3N2)); MDCK; 12 to 50 uM
Influenza A virus [45] = type: functional, organism-based; details: Influenza A virus (A/X-31(H3N2)); MDCK; 12 to 50 uM; remark: listed apart in the source
Influenza A virus [46] = type: functional, organism-based; details: Influenza A virus (A/X-31(H3N2)); MDCK; 250 uM; remark: listed apart in the source
MDCK [47] = experiment: Prodrug activation in MDCK cells assessed as parent compound remaining at 714 uM after 19 hrs by RP-HPLC-UV analysis; type: cell-based, Canis lupus familiaris; details: dog

Membrane-associated guanylate kinase, WW and PDZ domain-containing protein 1 (Homo sapiens), sequence (Q96QZ7 whole entry, the tested form may be a part): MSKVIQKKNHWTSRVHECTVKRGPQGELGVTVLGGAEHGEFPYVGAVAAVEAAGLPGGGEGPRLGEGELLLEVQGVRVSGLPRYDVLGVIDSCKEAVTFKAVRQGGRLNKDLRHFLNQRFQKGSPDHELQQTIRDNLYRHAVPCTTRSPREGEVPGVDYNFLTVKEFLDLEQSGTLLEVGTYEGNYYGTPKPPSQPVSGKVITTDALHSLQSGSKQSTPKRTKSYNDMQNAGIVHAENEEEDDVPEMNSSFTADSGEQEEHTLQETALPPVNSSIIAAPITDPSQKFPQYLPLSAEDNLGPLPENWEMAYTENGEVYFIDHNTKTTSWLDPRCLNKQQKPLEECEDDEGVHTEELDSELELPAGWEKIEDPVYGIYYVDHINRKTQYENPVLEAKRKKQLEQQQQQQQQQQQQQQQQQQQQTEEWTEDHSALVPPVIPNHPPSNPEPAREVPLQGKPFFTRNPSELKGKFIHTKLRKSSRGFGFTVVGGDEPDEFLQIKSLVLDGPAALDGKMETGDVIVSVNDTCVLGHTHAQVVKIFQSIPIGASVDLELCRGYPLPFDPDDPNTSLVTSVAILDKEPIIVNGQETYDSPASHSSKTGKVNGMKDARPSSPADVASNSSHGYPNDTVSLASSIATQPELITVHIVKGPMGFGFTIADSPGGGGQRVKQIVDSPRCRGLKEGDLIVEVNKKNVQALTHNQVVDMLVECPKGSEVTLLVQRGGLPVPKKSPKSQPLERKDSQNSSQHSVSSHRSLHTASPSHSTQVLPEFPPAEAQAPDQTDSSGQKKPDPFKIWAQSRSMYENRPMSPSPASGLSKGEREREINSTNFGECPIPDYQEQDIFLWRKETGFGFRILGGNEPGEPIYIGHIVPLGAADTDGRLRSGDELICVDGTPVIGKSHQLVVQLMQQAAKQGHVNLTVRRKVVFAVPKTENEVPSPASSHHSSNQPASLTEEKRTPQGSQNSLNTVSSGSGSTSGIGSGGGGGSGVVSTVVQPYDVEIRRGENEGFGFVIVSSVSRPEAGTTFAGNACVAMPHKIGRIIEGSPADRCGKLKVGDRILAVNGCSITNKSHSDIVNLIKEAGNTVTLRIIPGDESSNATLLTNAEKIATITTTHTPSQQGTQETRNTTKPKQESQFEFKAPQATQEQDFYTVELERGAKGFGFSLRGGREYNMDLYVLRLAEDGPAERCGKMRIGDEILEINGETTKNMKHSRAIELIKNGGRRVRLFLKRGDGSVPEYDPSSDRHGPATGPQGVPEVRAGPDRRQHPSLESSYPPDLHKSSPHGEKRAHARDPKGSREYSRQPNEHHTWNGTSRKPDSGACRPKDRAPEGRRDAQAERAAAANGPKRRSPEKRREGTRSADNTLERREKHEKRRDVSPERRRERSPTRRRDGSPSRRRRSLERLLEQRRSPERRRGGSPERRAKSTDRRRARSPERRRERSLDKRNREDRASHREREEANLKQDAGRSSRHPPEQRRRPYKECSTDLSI

Compound: NC(=O)c1nc(Br)cnc1O
- EC50 (Influenza B virus [1]): > 250 µM
- MCC at 72 h [2]: > 250 µM
- Drug metabolism (MDCK [3]): Metabolite_Notdetected
- MCC at 72 h [4]: > 250 µM
- EC50 (Influenza A virus [5]): > 250 µM
- EC50 (Influenza B virus [6]): > 250 µM
- CC50 at 72 h [7]: > 250 µM
- EC50 (Influenza A virus [8]): > 250 µM
- Drug metabolism (MDCK [9]): Metabolite_Notdetected

Compound: NC(=O)c1nccn([C@@H]2O[C@H](COP(=O)(O)OP(=O)(O)O)[C@@H](O)[C@H]2O)c1=O
- inhibition [10]: 62%
- inhibition [11]: 82%
- Drug metabolism (MDCK [12]): Metabolite_Detected
- Drug metabolism [13]: Metabolite_Detected
- inhibition [14]: 37%
- Drug metabolism (MDCK [15]): Metabolite_Detected
- Drug metabolism [16]: Metabolite_Detected
- Activity (MDCK [17]): Non-Toxic

Compound: NC(=O)c1nccn([C@@H]2O[C@H](COP(=O)(O)O)[C@@H](O)[C@H]2O)c1=O
- inhibition [18]: inactive
- Drug metabolism [19]: Metabolite_Notdetected
- Drug metabolism [20]: Metabolite_Notdetected

Compound: CCCCCCCCCC(=O)Oc1ccc(COP(=O)(OCc2ccc(OC(=O)CCCCCCCCC)cc2)OP(=O)(O)OC[C@H]2O[C@@H](n3ccnc(C(N)=O)c3=O)[C@H](O)[C@@H]2O)cc1.CCN(CC)CC
- Drug metabolism (MDCK [21]): Metabolite_Detected
- inhibition (Influenza A virus [22]): Active
- inhibition (Influenza A virus [23]): inactive
- inhibition (Influenza A virus [24]): inactive
- EC50 (Influenza B virus [1]): 0.56 µM
- MCC at 72 h [2]: 37 µM
- inhibition (Influenza A virus [25]): Active
- inhibition (Influenza A virus [26]): Active
- MCC at 72 h [4]: 22 µM
- EC50 (Influenza A virus [5]): 1.3 µM
- Activity (A549): Non-Toxic
- Drug metabolism (MDCK [27]): Metabolite_Notdetected
- Drug metabolism [28]: Metabolite_Detected
- EC99 [29]: 72 µM
- t1/2 [30]: 30 h
- Drug metabolism (Liver carboxylesterase [31]): Metabolite_Detected
- Drug metabolism (Liver carboxylesterase [32]): Metabolite_Detected
- EC50 (Influenza B virus [6]): 0.81 µM
- CC50 at 72 h [7]: > 100 µM
- IC50 [33]: 49 to 126 µM
- Drug metabolism [34]: Metabolite_Detected
- inhibition (Influenza A virus [35]): Active
- Drug metabolism (MDCK [36]): Metabolite_Detected
- EC50 (Influenza A virus [8]): 1 µM
- Ratio [37]: 2
- IC50 [38]: 49 to 126 µM
- Drug metabolism (MDCK [39]): Metabolite_Detected

Compound: NC(=O)c1nccnc1O
- Drug metabolism (MDCK [40]): Metabolite_Notdetected
- inhibition (Influenza A virus [23]): inactive
- inhibition (Influenza A virus [24]): inactive
- EC50 (Influenza B virus [1]): 2.1 µM
- MCC at 72 h [2]: > 250 µM
- inhibition (Influenza A virus [25]): Active
- MCC at 72 h [4]: > 250 µM
- EC50 (Influenza A virus [5]): 6.4 µM
- EC99 [29]: 134 µM
- inhibition (Influenza A virus [41]): Active
- Drug metabolism (MDCK [42]): Metabolite_Detected
- inhibition (Influenza A virus [43]): Active
- inhibition (Influenza A virus [44]): Active
- EC50 (Influenza B virus [6]): 2.8 µM
- CC50 at 72 h [7]: > 250 µM
- inhibition (Influenza A virus [45]): Active
- EC50 (Influenza A virus [8]): 5.4 µM
- inhibition (Influenza A virus [46]): Active
- Stability (MDCK [47]): 10%
